Results published in patent publication US20230295212A1 (ROME Therapeutics, Inc., priority 2022, published 2023).

Columns and labels:
[1] = target: T1, LINE1 reverse transcriptase (Homo sapiens, UniProt O00370); experiment: Stable artificial-intron Cis LINE1 reporter assay (HeLa Tet-On 3G, Firefly luciferase); assay type: cell-based; conditions: HeLa L1 artificial-intron reporter cells, doxycycline 500 ng/mL, 72 h, class symbols
T1 construct: expressed in transfected cells; host or cells: HeLa Tet-On 3G (Takara, cat no 631183)
Summary of the method: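 HeLa Tet-On 3G clone stably carrying a bi-directional doxycycline-inducible artificial-intron LINE1 reporter, plated at 8,000 cells/well onto serially diluted compound. Expression induced with 500 ng/mL doxycycline (final); Firefly luciferase luminescence (Dual-Glo) read 72 h after plating as LINE1 activity.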

human PBMC = experiment: Decitabine-stimulated human PBMC assay (IFN-β, cell viability); assay type: cell-based; conditions: 5 days; for IFN-β level: anti-CD3/anti-CD28, decitabine 10 μM
Method: EasySep buffer (32 mL, […] Technologies, cat. #20144) was used to dilute 8 mL of LRSC buffy coat (from fresh Leukopak) with gentle mixing. The diluted buffy coat (20 mL) was transferred into each of two SepMate 50 tubes, and the tubes were filled with 15 mL of Lyphoprep ([…], cat. #07851) density gradient. The SepMate tubes were then centrifuged at 1200G for 10 minutes at room temperature with the brake on. The top layer of supernatant was collected in SepMate tubes by quickly pouring it into a new 50 mL conical tube. The PBMCs were washed with EasySep buffer ×2 by centrifuging at 300G for 5 minutes. The cells were resuspended in 30 mL of EasySep and centrifuged at 100G for 5 minutes with the brake off, and the platelets were removed. The cells were then resuspended in 6 mL of 1×RBC lysis buffer (Invitrogen) and incubated at 37° C. for 5 minutes. 25 mL of EasySep buffer was then mixed into the tube and centrifuged at 300G for 5 minutes. The cells were resuspended in 10 mL of EasySep buffer and the cells were then counted with Cellometer (AO/PI). The PBMCs were resuspended in RPMI1640 (ThermoFisher)^+10% FBS (HyClone)^+μ/s at 3×10^6/mL. The PBMCs (100 μL, 300 k PBMCs) were then seeded in a 96-well flat bottom microplate (Corning) that had been precoated with 100 μL of anti-CD3 antibody (10 μg/mL in PBS, Biolegend) or PBS at 4° C., one day before the assay was commenced.
To each well the following solutions were added 1) 100 μL of cells (final cell number per well is 3×10^5 cell/well); 2) 25 μL of anti-CD28 antibody at 6×(5 μg/mL final concentration, Biolegend); 3) 25 μL of decitabine at 6×(10 μM final concentration); and 4) Compound in DMSO was dispensed directly into each well with a d300e digital dispenser (Tecan). The final concentration of DMSO for each well was normalized to 0.3%. The plate was incubated at 37° C. without any agitation for 5 days. Samples were collected 120 hours after incubation to determine IFN-0 and IL-2 levels using a U-PLEX Human IFN-β Assay Sector (5PL) (MSD, cat. #K151VIK-2).
After 5 days, the plate was spun down at 100×G for 5 minutes. Supernatants (100 μL) were collected for interferon β(IFN-β) analysis using the MSD assay noted above, and any residual supernatant was stored at −80° C.

[2] = tested on: interferon-stimulated gene (ISG) response; experiment: In vivo decitabine challenge model in C57BL/6 mice (ISG response); design: species or system mouse; conditions: decitabine i.p. 5 mg/kg, compound p.o. 0.6, 2.0, 6.0 mg/kg daily Day 0 to Day 4, IFIT2 v. GAPDH
Method: Exemplary compounds were tested for ability to alter the interferon-stimulated gene (ISG) response in C57BL/6 mice treated with decitabine. Assay procedures and results are described below. Twenty 9-11 week old C57BL/6 mice were acclimated to the lab for at least 5 days. Compound 23 was prepared in a 0.5% methylcellulose solution for p.o. administration. Decitabine (Sigma-Aldrich) was dissolved in sterile PBS (pH 7.4) and dosed within 30 minutes of preparation of the solution. Doses of both the compound and decitabine were administered once a day, every day from Day 0 to Day 4. On Day 0, mice were split into five groups of five mice and given their first dose of decitabine (i.p., 5 mg/kg) and compound 23. Dosing groups were: Decitabine and compound 23 were administered daily from Day 0 to Day 4. All mice were euthanized 1 hour after the last dose administration on Day 4. Spleens, liver, and terminal colon were collected, along with plasma from each animal. The fold changes in interferon-stimulated gene (ISG) expression was calculated by first normalizing to GAPDH gene using the Delta CT method. The CT (gene of interest)—CT (reference gene) was calculated to generate a delta CT for all samples. The fold change was then calculated by taking the Log2(Delta CT(control)—Delta CT (experimental). The control in this example was the PBS control animal group. The Taqman duplex assay was used to determine levels of GAPDH v. IFIT2. Twenty 9-11 week old C57BL/6 mice were acclimated to the lab for at least 5 days. Compound 2 was prepared in 20% PEG400 in PBS (final pH 4.5) for p.o. administration. Decitabine (Sigma) was dissolved in sterile PBS (pH 7.4) and dosed within 30 minutes of preparation of the solution. Doses of both Compound 2 and decitabine were administered once a day. On Day 0, mice were split into five groups of five mice and given their first dose of decitabine and Compound 2. […] The fold changes in interferon-stimulated gene (ISG, specifically IRF7 and MX1) expression was calculated by first normalizing to GAPDH gene using the Delta CT method. […]

[3] = tested on: THP1-Dual KO-TREX1 xenograft tumors; experiment: Altering IFN production in THP1 TREX1 KO xenografts (compounds 2, 25, 40); assay type: in vivo, mouse; conditions: CB-17 SCID mice, decitabine 5 mg/kg IP, test compound 10, 30 or 100 mg/kg PO once daily 4 days, tumors 24 h post-last dose
Method: Exemplary compounds 2, 25 and 40 were tested for their ability to alter IFN levels in THP1-Dual™ KO-TREX1 xenografts in mice. Assay procedures are described below.
CB-17 SCID female mice were inoculated subcutaneously with 10 million THP1-Dual™ KO-TREX1 cells in 200 μl PBS with Matrigel (1:1) and grouped when tumor volume reached 350-400 mm^3. Mice bearing THP1-Dual™ KO-TREX1 xenograft tumors were then separated into 5 groups. Three groups were administered: (1) decitabine (DAC) at 5 mg/kg IP, once daily, for 4 days, and (2) test compound at 10, 30, or 100 mg/kg, PO, once daily, for 4 days. One group was administered decitabine (DAC) at 5 mg/kg IP, once daily, for 4 days, and the test compound vehicle control. The final group was administered the vehicle control from both the test compound and the vehicle control from decitabine. Decitabine is formulated in sterile PBS, pH 7.4, and Compound 2, 25, and 40 were formulated in 20% PEG400 in PBS.
Tumors were harvested 24 h post-last dose administered on day 4, ground in PBS at 50 Hz for 5 min, and kept on ice for 30 min while being vortexed every 5 min. […] Equal amounts of proteins were added to 96-well black plates, and luciferase signal was measured using the QUANTI-Luc™ detection medium according to manufacturer's instructions. Luminescence was measured using the EnVision® 2105 Multimode Plate Reader. […]

[4] = target: T2, LINE1 reverse transcriptase (recombinant MBP-tagged LINE1 protein (238-1061)) (Homo sapiens, UniProt O00370); experiment: Homogeneous time-resolved fluorescence (HTRF) LINE1 RT assay; assay type: biochemical; conditions: triphosphate analogs, LINE1 enzyme 64 ng/well, 25° C. 60 minutes
T2 construct: recombinant MBP-tagged LINE1 protein (238-1061); made in house
Method: Exemplary triphosphate analogs were tested for the ability to inhibit LINE1 reverse transcriptase using a homogeneous time-resolved fluorescence (HTRF) assay. Assay procedures and results are described below.
The LINE1 reverse transcriptase homogeneous time-resolved fluorescence (HTRF) assay was performed with recombinant MBP-tagged LINE1 protein (238-1061) (generated and purified according to procedures in Dai L. et al. BMC Biochemistry 2011; 12:18) in a 384-well format. Test compound was serially diluted in DMSO and further diluted in the assay buffer (50 mM Tris-HCl, 50 mM KCl, 10 mM MgCl2, 10 mM DTT, pH 8.1) to achieve a final DMSO concentration of 1%. The serially diluted compound was mixed with 64 ng/well of LINE1 enzyme, 5 nM of pre-annealed template/biotin-primer pair (synthesized at Generay Biotechnology), 10 nM of Fluorescein-12-dCTP fluorescent probe (PerkinElmer), and 1 μM dGTP/dATP/dTTP (ThermoFisher Scientific) in the assay buffer. The template/biotin-primer sequences were as follows:
After incubating at 25° C. for 60 minutes, the detection reagent (20 mM EDTA with streptavidin-terbium cryptate, Cisbio Bioassay) in the PPI buffer (Cisbio Bioassay) was added, and the mixture was incubated at 25° C. for 30 minutes. At the end of the incubation, fluorescence was read at ex/em=337/485 nm and ex/em=337/520 nm on an Envision 2104 plate reader (PerkinElmer). The fluorescence ratio at 520/485 nm was used for the calculation. […] The IC50 was calculated by fitting the compound dose inhibition curve with a 4-parameter non-linear regression equation.

[5] = target: T3, HERV-K reverse transcriptase (Homo sapiens, UniProt V9H0F6); experiment: Homogeneous time-resolved fluorescence (HTRF) HERV-K RT assay; assay type: biochemical; conditions: triphosphate analogs, HERV-K enzyme 16 ng/well, 25° C. 30 minutes
T3 construct: fused on or other part: C-terminal 8xHis tag
T3 sequence (V9H0F6 entry or part of it): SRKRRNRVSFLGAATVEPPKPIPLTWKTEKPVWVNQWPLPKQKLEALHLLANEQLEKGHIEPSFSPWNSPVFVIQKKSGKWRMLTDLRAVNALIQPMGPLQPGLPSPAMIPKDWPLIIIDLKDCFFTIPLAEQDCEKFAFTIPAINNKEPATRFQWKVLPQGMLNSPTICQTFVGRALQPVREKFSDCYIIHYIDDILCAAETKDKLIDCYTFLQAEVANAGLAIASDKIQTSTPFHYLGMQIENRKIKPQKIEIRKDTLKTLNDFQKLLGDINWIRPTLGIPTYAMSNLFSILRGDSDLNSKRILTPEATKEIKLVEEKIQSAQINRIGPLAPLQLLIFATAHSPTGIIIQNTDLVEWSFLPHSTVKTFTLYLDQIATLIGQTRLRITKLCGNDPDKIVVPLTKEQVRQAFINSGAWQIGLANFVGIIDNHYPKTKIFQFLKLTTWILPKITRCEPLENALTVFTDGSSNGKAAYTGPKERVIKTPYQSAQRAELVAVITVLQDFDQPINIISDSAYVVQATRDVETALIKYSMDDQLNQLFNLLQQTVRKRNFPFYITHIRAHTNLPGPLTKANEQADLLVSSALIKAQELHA
Method: Exemplary triphosphate analogs were tested for ability to inhibit HERV-K reverse transcriptase using a homogeneous time-resolved fluorescence (HTRF) assay. Assay procedures and results are described below.
The HERV-K reverse transcriptase homogeneous time-resolved fluorescence (HTRF) assay was performed in a 384-well format with HERV-K reverse transcriptase (2-596)-8His protein. Baculoviruses were created using Bac-to-Bac technology (Invitrogen). pFastflac donor plasmids containing HERV-K reverse transcriptase sequence (NCBI GenBank number AAC63291.1, J. Virology (1999) Vol. 73, No. 3, pp. 2365-2375) were transformed into DH10 Bac cells following the manufacturer's instructions. Recombinant bacmids were then isolated clonally and transfected into SF9 cells with lipofectin. HERV-K reverse transcriptase was expressed in the SF9 insect cells and then purified using immobilized metal affinity chromatography (IMAC) followed by size-exclusion chromatography (SEC).
Test compound was serially diluted in DMSO and further diluted in the assay buffer (50 mM Tris-HCl, 50 mM KCl, 10 mM MgCl2, 10 mM DTT, pH 8.1) to achieve a final DMSO concentration of 1%. The serially diluted compound was mixed with 16 ng/well of HERV-K enzyme, 5 nM of pre-annealed template/biotin-primer pair (synthesized at Geneway Biotechnology), 10 nM of Fluorescein-12-dCTP fluorescent probe (PerkinElmer), and 1 mM dGTP, dATP, and DTTP (ThermoFisher). The template/biotin-primer sequences were:
After incubating at 25° C. for 30 minutes, the detection reagent 20 mM EDTA with streptavidin-terbium cryptate (Cisbio Bioassay) in the PPI buffer (Cisbio Bioassay) was added, and the mixture was incubated at 25° C. for 60 minutes. At the end of the incubation, fluorescence was read at ex/em=337/485 nm and ex/em=337/520 nm on an Envision 2104 plate reader (PerkinElmer). The fluorescence ratio at 520/485 nm was used for the calculation. […] IC50 values were calculated by fitting the compound dose inhibition curve with a 4-parameter non-linear regression equation.

Compound | IC50 [1] | IFN-β level (human PBMC) | change in interferon-stimulated gene (ISG) response (FIG. 2A) [2] | inhibition of DAC-induced IFN signal in THP1 tumors [3] | cell viability (human PBMC; decitabine 10 μM) | IC50 [4] | IC50 [5]
C#C[C@]1(CO)O[C@@H](n2cnc3c(N)nc(F)nc32)C[C@@H]1O [Compound 23, (2R,3S,5R)-5-(6-amino-2-fluoro-9H-purin-9-yl)-2-ethynyl-2-(hydroxymethyl) tetrahydrofuran-3-ol] | ≤ 50 nM | activated production of IFN-β | change in ISG response | – | – | – | –
C#C[C@]1(CO)O[C@@H](n2cnc3c(N)nc(Cl)nc32)C[C@@H]1O [Compound 25, (2R,3S,5R)-5-(6-amino-2-chloro-9H-purin-9-yl)-2-ethynyl-2-(hydroxymethyl) tetrahydrofuran-3-ol] | ≤ 50 nM | activated production of IFN-β | – | – | – | – | –
Nc1ccn([C@@H]2O[C@@](CO)(CCl)[C@@H](O)[C@@H]2F)c(=O)n1 [Compound 40, 4-amino-1-((2R,3S,4R,5R)-5-(chloromethyl)-3-fluoro-4-hydroxy-5-(hydroxymethyl)tetrahydrofuran-2-yl)pyrimidin-2(1H)-one] | ≤ 50 nM | inhibition of IFN-0 | – | potent inhibition of DAC-induced IFN signal | some cell viability losses at higher concentrations | – | –
Nc1nc(=O)n([C@@H]2O[C@](CBr)(COP(=O)(O)OP(=O)(O)OP(=O)(O)O)[C@@H](O)[C@@H]2F)cc1F [Compound 86-TP, ((2R,3R,4S,5R)-5-(4-amino-5-fluoro-2-oxopyrimidin-1(2H)-yl)-2-(bromomethyl)-4-fluoro-3-hydroxytetrahydrofuran-2-yl) methyl tetrahydrogen triphosphate; tetrakis(triethylamine)] | – | – | – | – | – | 1610 nM | > 10000 nM
